Source: US9938562B2, “Naphthalene derived chromogenic enzyme substrates” (Glycosynth Limited, priority 2013, dated 2018)
Like-named read-outs stand apart in the source and are kept apart here.

Tests used:
[1] = tested on: β-D-glucuronidase-positive strains; assay: Hydrolysis by glucuronidase-positive strains; type: cell-based
[2] = tested on: clinical isolates of E. coli; assay: Glucuronide sensitivity screen, agar plates (CPS ID 3 or Columbia agar); type: cell-based
E. faecalis NCTC 775 = assay: Glucuronide screen, agar plates (CPS ID 3 or Columbia agar); type: cell-based; conditions: E. faecalis NCTC 775, agar
E. faecium NCTC 7171 = assay: as above; type: cell-based; conditions: E. faecium NCTC 7171, agar
E. cloacae = assay: as above; type: cell-based
[3] = tested on: Burkholderia cepacia NCTC 10931; assay: Agar plate multi-point inoculation, colour; type: cell-based; conditions: Columbia agar, FAC 500 mg/L, substrate 300 mg/L, 37° C. 18 h in air
[4] = tested on: Pseudomonas aeruginosa NCTC 10662; assay: Agar plate multi-point inoculation, colour; type: cell-based
[5] = tested on: Bacillus subtilis NCTC 9372; assay: Agar plate multi-point inoculation, colour; type: cell-based
[6] = tested on: Enterococcus faecalis NCTC 775; assay: Agar plate multi-point inoculation, colour; type: cell-based
[7] = tested on: Acinetobacter baumannii NCTC 19606; assay: Agar plate multi-point inoculation, colour; type: cell-based
[8] = tested on: Staphylococcus aureus (MRSA) NCTC 11939; assay: Agar plate multi-point inoculation, colour; type: cell-based; conditions: Columbia agar, FAC 500 mg/L, substrate 300 mg/L, 37° C. 18 h in air
[9] = tested on: Steptococcus pyogenes NCTC 8306; assay: Agar plate multi-point inoculation, colour; type: cell-based
[10] = tested on: Yersinia enterocolitica NCTC 11176; assay: Agar plate multi-point inoculation, colour; type: cell-based; conditions: Columbia agar, FAC 500 mg/L, substrate 300 mg/L, 37° C. 18 h in air
[11] = tested on: Klebsiella pneumoniae NCTC 9528; assay: Agar plate multi-point inoculation, colour; type: cell-based
[12] = tested on: Staphylococcus aureus NCTC 6571; assay: Agar plate multi-point inoculation, colour; type: cell-based
[13] = tested on: Escherichia coli NCTC 10418; assay: Agar plate multi-point inoculation, colour; type: cell-based
[14] = tested on: Enterococcus faecium NCTC 7171; assay: Agar plate multi-point inoculation, colour; type: cell-based
[15] = tested on: Enterobacter cloacae NCTC 11936; assay: Agar plate multi-point inoculation, colour; type: cell-based
[16] = tested on: Salmonella typhimurium NCTC 74; assay: Agar plate multi-point inoculation, colour; type: cell-based
range of microorganisms = assay: Agar plate evaluation with a range of microorganisms (hue, diffusion, background); type: cell-based; conditions: agar plates with FAC
[17] = tested on: Providencia rettgeri NCTC 7475; assay: Agar plate multi-point inoculation, colour; type: cell-based
[18] = tested on: Candida glabrata NCPF 3943; assay: Agar plate multi-point inoculation, colour; type: cell-based
[19] = tested on: Staphylococcus epidermidis NCTC 11047; assay: Agar plate multi-point inoculation, colour; type: cell-based
[20] = tested on: Listeria monocytogenes NCTC 11994; assay: Agar plate multi-point inoculation, colour; type: cell-based
[21] = tested on: Serratia marcescens NCTC 10211; assay: Agar plate multi-point inoculation, colour; type: cell-based
[22] = tested on: Candida albicans ATCC 90028; type: cell-based
[23] = 100 E. coli strains, agar, 18 h incubation

COC(=O)C1OC(Oc2cc3ccccc3cc2O)C(O)C(O)C1O [Compound 13, DHN-β-D-glucuronide-6′-methyl ester]
colour after hydrolysis compared with 12a or 12b [1]: weaker

NC1CCCCC1.O=C(O)[C@H]1O[C@@H](Oc2c[nH]c3ccc(Br)c(Cl)c23)[C@H](O)[C@@H](O)[C@@H]1O [X-β-D-glucuronide CHA salt]
% Sensitivity [2]: 79% | Colour [2]: − | Negative strains [2, 23]: 21 | Positive strains [2, 23]: 79 | Colour ([2]; E. coli 260262P, agar): Green | Colour ([2]; E. coli 260280Z, agar): Green | Colour ([2]; E. coli 260310H, agar): Green | Colour ([2]; E. coli 260313A, agar): − | Colour ([2]; E. coli 260316T, agar): − | Colour ([2]; E. coli 260327V, agar): Green | Colour ([2]; E. coli 260330Y, agar): Green | Colour ([2]; E. coli 260333P, agar): − | Colour ([2]; E. coli 260345F, agar): Green | Colour ([2]; E. coli 260348K, agar): Green | Colour ([2]; E. coli 260354W, agar): Green | Colour ([2]; E. coli 260364H, agar): − | Colour ([2]; E. coli 260370C, agar): Green | Colour ([2]; E. coli 260375E, agar): Green | Colour ([2]; E. coli 260390B, agar): − | Colour ([2]; E. coli 260396Z, agar): Green | Colour ([2]; E. coli 260398Q, agar): Green | Colour ([2]; E. coli 260399E, agar): Green | Colour ([2]; E. coli 260400N, agar): − | Colour ([2]; E. coli 260401Q, agar): Green | Colour ([2]; E. coli 260402H, agar): Green | Colour ([2]; E. coli 260404W, agar): Green | Colour ([2]; E. coli 260405P, agar): Green | Colour ([2]; E. coli 260406A, agar): − | Colour ([2]; E. coli 260406Y, agar): Green | Colour ([2]; E. coli 260407F, agar): Green | Colour ([2]; E. coli 260408C, agar): Green | Colour ([2]; E. coli 260411Z, agar): Green | Colour ([2]; E. coli 260412Q, agar): Green | Colour ([2]; E. coli 260414H, agar): Green | Colour ([2]; E. coli 260415Y, agar): Green | Colour ([2]; E. coli 260416W, agar): − | Colour ([2]; E. coli 260417P, agar): Green | Colour ([2]; E. coli 260422Y, agar): Green | Colour ([2]; E. coli 260424P, agar): Green | Colour ([2]; E. coli 260425A, agar): Green | Colour ([2]; E. coli 260426F, agar): Green | Colour ([2]; E. coli 260428T, agar): Green | Colour ([2]; E. coli 260431N, agar): Green | Colour ([2]; E. coli 260432E, agar): Green | Colour ([2]; E. coli 260433H, agar): Green | Colour ([2]; E. coli 260434Y, agar): Green | Colour ([2]; E. coli 260435W, agar): Green | Colour ([2]; E. coli 260436P, agar): Green | Colour ([2]; E. coli 260437A, agar): − | Colour ([2]; E. coli 260438F, agar): Green | Colour ([2]; E. coli 260439C, agar): Green | Colour ([2]; E. coli 260440S, agar): Green | Colour ([2]; E. coli 260441G, agar): Green | Colour ([2]; E. coli 260458Y, agar): Green | Colour ([2]; E. coli 260459W, agar): Green | Colour ([2]; E. coli 260463D, agar): Green | Colour ([2]; E. coli 260464G, agar): Green | Colour ([2]; E. coli 260471B, agar): − | Colour ([2]; E. coli 260478N, agar): − | Colour ([2]; E. coli 260479Q, agar): Green | Colour ([2]; E. coli 260480M, agar): Green | Colour ([2]; E. coli 260481J, agar): Green | Colour ([2]; E. coli 260483R, agar): − | Colour ([2]; E. coli 260485D, agar): Green | Colour ([2]; E. coli 260486L, agar): Green | Colour ([2]; E. coli 260492J, agar): Green | Colour ([2]; E. coli 260494B, agar): Green | Colour ([2]; E. coli 260495R, agar): − | Colour ([2]; E. coli 260497D, agar): Green | Colour ([2]; E. coli 260502G, agar): Green | Colour ([2]; E. coli 260503Z, agar): Green | Colour ([2]; E. coli 260504N, agar): Green | Colour ([2]; E. coli 260505Q, agar): − | Colour ([2]; E. coli 260506E, agar): Green | Colour ([2]; E. coli 260508Y, agar): Green | Colour ([2]; E. coli 260509W, agar): Green | Colour ([2]; E. coli 260510R, agar): Green | Colour ([2]; E. coli 260511X, agar): Green | Colour ([2]; E. coli 260514G, agar): − | Colour ([2]; E. coli 260515Z, agar): − | Colour ([2]; E. coli 260521S, agar): Green | Colour ([2]; E. coli 260522Z, agar): Green | Colour ([2]; E. coli 260532S, agar): Green | Colour ([2]; E. coli 260533G, agar): Green | Colour ([2]; E. coli 260536Q, agar): Green | Colour ([2]; E. coli 260537E, agar): − | Colour ([2]; E. coli 260538H, agar): − | Colour ([2]; E. coli 260539Y, agar): Green | Colour ([2]; E. coli 260541R, agar): Green | Colour ([2]; E. coli 260545G, agar): Green | Colour ([2]; E. coli 260547N, agar): Green | Colour ([2]; E. coli 260548Q, agar): Green | Colour ([2]; E. coli 260549E, agar): Green | Colour ([2]; E. coli 260553X, agar): − | Colour ([2]; E. coli 260554D, agar): Green | Colour ([2]; E. coli 260555L, agar): Green | Colour ([2]; E. coli 260563B, agar): Green | Colour ([2]; E. coli 260564R, agar): Green | Colour ([2]; E. coli 260578D, agar): − | Colour ([2]; E. coli 2603121P, agar): − | Colour (E. faecalis NCTC 775): − | Colour (E. faecium NCTC 7171): − | Colour (E. cloacae; E. cloacae 260329R, agar): − | Colour (E. cloacae; E. cloacae NCTC 11936, agar): −

DHN-6-sulfonic acid-β-D-galactopyranoside sodium salt [Compound 31]
Colour [3]: − | Colour [4]: − | Colour [5]: − | Colour [6]: − | Colour [7]: − | Colour [8]: − | Colour [9]: − | Colour [10]: − | Colour [11]: − | Colour [12]: − | Colour [13]: + | Colour [14]: − | amount dissolved in water: 30 mg | Colour [15]: + | Colour [16]: − | colour (hue) after hydrolysis (range of microorganisms): purple to maroon colonies | Colour [17]: + | Colour [18]: − | Colour [19]: − | Colour [20]: − | Colour [21]: − | Colour [22]: −
